Assay results from US6242601A, “Heterocyclic sulfamides” (Hoffman-La Roche Inc., priority 1999, dated 2001).

What was measured:
[1] = target: T1, recombinant human ETA receptors (Homo sapiens, UniProt P25101); assay: Inhibition of endothelin binding to recombinant human ETA receptors expressed in baculovirus-infected insect cells (125I-endothelin); conditions: 125I-endothelin 20 pM; baculovirus-infected insect cell membranes; 20° C. for 2 hours or 4° C. for 24 hours
T1 sequence (P25101 21-427): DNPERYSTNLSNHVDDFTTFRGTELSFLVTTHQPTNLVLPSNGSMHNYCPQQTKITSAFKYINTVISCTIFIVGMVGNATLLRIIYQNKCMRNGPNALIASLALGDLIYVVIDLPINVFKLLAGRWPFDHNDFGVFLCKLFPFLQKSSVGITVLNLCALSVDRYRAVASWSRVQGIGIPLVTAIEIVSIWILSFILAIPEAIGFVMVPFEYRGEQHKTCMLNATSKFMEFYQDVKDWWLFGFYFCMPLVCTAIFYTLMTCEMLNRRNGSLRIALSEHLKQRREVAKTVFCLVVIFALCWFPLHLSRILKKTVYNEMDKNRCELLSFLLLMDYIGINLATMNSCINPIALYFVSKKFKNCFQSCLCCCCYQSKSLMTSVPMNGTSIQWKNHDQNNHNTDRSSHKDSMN
Method: I. […] A cDNA coding for human ETA receptors of human placenta was cloned ([…]. Yang, Y. Furuichi and C. Miyamoto, BBRC 180, 1265-1272) and expressed in the Baculovirus-insect cell system. Baculovirus-infected insect cells from a 23 1 fermenter are centrifuged off (3000×g, 15 minutes, 4° C.) 60 hours after the infection, re-suspended in Tris buffer (5 mM, pH 7.4, 1 mM MgCl2) and again centrifuged. After a further re-suspension and centrifugation the cells are suspended in 800 ml of the same buffer and […] at -120° C. The cells disintegrate when the suspension in this hypotonic buffer mixture is thawed. After a repeated […]/thawing cycle the suspension is homogenised and centrifuged (25000×g, 15 minutes, 4° C.). After suspension in Tris buffer (75 mM, pH 7.4, 25 mM MgCl2, 250 mM sucrose) 1 ml aliquots (protein content about 3.5 mg/ml) are stored at -85° C. […] The incubation is carried out at 20° C. for 2 hours or at 4° C. for 24 hours. The separation of free and membrane-bound radio-ligands is carried out by filtration over a glass fibre filter.

[2] = Pharmacokinetics of the endothelin receptor antagonists after oral gavage in rats; format: in vivo; conditions: rat, plasma, 5 mg/kg in DMSO, Wistar rats, bioassay
Method: IV. […] The test compounds were dissolved in DMSO at a concentration of 5 mg/mL and administered orally by gavage at a dose of 1 mL/kg body weight corresponding to 5 mg/kg body weight. Two rats were administered per test compound. Blood samples were collected from the retro-orbital sinus at 1 and 5 h post dose in one rat, and at 3 and 7 h post dose in the other rat. In addition a terminal 24 h blood sample was collected from both rats by heart puncture. Blood was collected on EDTA-NaF. Plasma was derived by centrifugation at 2000 g at +4° C. for 15 min. Plasma samples were assayed for active drug related material with a bioassay, based on the binding competition of tested compounds and ^125 I ET-1 on recombinant ETA receptors. Quantitation of plasma samples was by comparison to a calibration curve build up from control rat plasma spiked with known concentrations of the test compounds.

Row | Compound | IC50 [1] | AUC ([2]; read-out: Area under the plasma concentration time curve) | Cmax ([2]; read-out: Peak concentration in rat plasma)
1 | COc1ccccc1Oc1c(NS(=O)(=O)c2ccc(C(C)C)cn2)nc(-c2ccnc(-c3noc(C)n3)c2)nc1OC [Example 56, 5-isopropyl-pyridine-2-sulfonic acid {6-methoxy-5-(2-methoxy-phenoxy)-2-[2-(5-methyl-[1,2,4]oxadiazol-3-yl)-pyridin-4-yl]-pyrimidin-4-yl}-amide] | ≤ 50 nM | – | –
2 | C=C(C)c1ccc(S(=O)(=O)Nc2nc(-c3cccc(O)c3)nc(OC)c2Oc2ccccc2OC)nc1 [Example 15, 5-isopropenyl-pyridine-2-sulfonic acid [2-(3-hydroxy-phenyl)-6-methoxy-5-(2-methoxy-phenoxy)-pyrimidin-4-yl]-amide] | ≤ 50 nM | – | –
3 | COc1ccccc1Oc1c(NS(=O)(=O)c2ccc(C)cn2)nc(-c2ccnc(C(=N)NO)c2)nc1OC [Example 34, N-hydroxy-4-[4-methoxy-5-(2-methoxy-phenoxy)-6-(5-methyl-pyridine-2-sulfonylamino)-pyrimidin-2-yl]-pyridine-2-carboxamidine] | ≤ 50 nM | – | –
4 | COc1ccccc1Oc1c(NS(=O)(=O)c2ccc(C(C)C)cn2)nc(-c2ccnc(C(=O)N(C)C)c2)nc1OC [Example 51, 4-[4-(5-isopropyl-pyridine-2-sulfonylamino)-6-methoxy-5-(2-methoxy-phenoxy)-pyrimidin-2-yl]-pyridine-2-carboxylic acid dimethylamide] | ≤ 50 nM | – | –
5 | COC(=O)c1cc(-c2nc(NS(=O)(=O)c3ccc(C)cn3)c(Oc3ccccc3OC)c(OC)n2)ccn1 [Example 22, 4-[4-methoxy-5-(2-methoxy-phenoxy)-6-(5-methyl-pyridine-2-sulfonylamino)-pyrimidin-2-yl]-pyridine-2-carboxylic acid methyl ester] | ≤ 50 nM | ≥ 10000 ng·h/mL | ≥ 1500 ng/mL
6 | CCOc1cc(-c2nc(NS(=O)(=O)c3ccc(C)cn3)c(Oc3ccccc3OC)c(OC)n2)ccn1 [Example 38, 5-methyl-pyridine-2-sulfonic acid [2-(2-ethoxy-pyridin-4-yl)-6-methoxy-5-(2-methoxy-phenoxy)-pyrimidin-4-yl]-amide] | ≤ 50 nM | – | –
7 | CNC(=O)c1cc(-c2nc(NS(=O)(=O)c3ccc(C(C)C)cn3)c(Oc3ccccc3OC)c(OC)n2)ccn1 [Example 48, 4-[4-(5-isopropyl-pyridine-2-sulfonylamino)-6-methoxy-5-(2-methoxy-phenoxy)-pyrimidin-2-yl]-pyridine-2-carboxylic acid methylamide] | ≤ 50 nM | – | –
8 | COc1ccccc1Oc1c(NS(=O)(=O)c2ccc(C)cn2)nc(-c2ccnc(C(=O)OCCO)c2)nc1OC [Example 25, 4-[4-methoxy-5-(2-methoxy-phenoxy)-6-(5-methyl-pyridine-2-sulfonylamino)-pyrimidin-2-yl]-pyridine-2-carboxylic acid 2-hydroxy-ethyl ester] | ≤ 50 nM | – | –
9 | CCS(=O)(=O)NCc1cc(-c2nc(NS(=O)(=O)c3ccc(C)cn3)c(Oc3ccccc3OC)c(OC)n2)ccn1 [Example 32, 5-methyl-pyridine-2-sulfonic acid [2-[2-(ethanesulfonylamino-methyl)-pyridin-4-yl]-6-methoxy-5-(2-methoxy-phenoxy)-pyrimidin-4-yl]-amide] | ≤ 50 nM | – | –
